{"source": "patent US4127530A", "about": "“Novel heneicosapeptides, intermediates therefor and pharmaceutical compositions and methods employing said heneicosapeptides” (priority 1977, dated 1978)", "origin": "cited, not measured here", "key": {"[1]": {"test_system": "partially purified brain opiate receptor sites", "details": "for opioid activity in binding to partially purified brain opiate receptor sites: fragments isolated from the pituitary"}, "[2]": {"details": "injected directly into the brain of the rat"}}, "data": [{"substance": "H-Tyr-Gly-Gly-Phe-Met-OH [methionine enkephalin]", "values": [{"measurement": "binding to partially purified brain opiate receptor sites", "setting": "[1]; natural peptide", "value": "binds stereo-specifically"}, {"measurement": "analgesic activity", "setting": "[2]", "value": "weak analgesic agent of short duration"}]}, {"substance": "β-endorphin: β-lipotropin fragment 61-91", "values": [{"measurement": "opioid activity in binding to partially purified brain opiate receptor sites", "setting": "[1]", "value": "potent opioid activity"}]}, {"substance": "α-endorphin", "values": [{"measurement": "opioid activity in binding to partially purified brain opiate receptor sites", "setting": "[1]", "value": "potent opioid activity"}]}, {"substance": "γ-endorphin", "values": [{"measurement": "opioid activity in binding to partially purified brain opiate receptor sites", "setting": "[1]", "value": "potent opioid activity"}]}]}
